Assay results taken from PubChem BioAssay (NCI).
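At the GI50, growth is halved. TGI: concentration producing complete growth inhibition.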

Legend:
Assay in all cases: inhibition of tumour cell growth, NCI panel, 384-well format
[1] = tested on: 786-0 renal
[2] = tested on: A498 renal
[3] = tested on: A549 NSCLC
[4] = tested on: ACHN renal
[5] = tested on: BT-549 breast
[6] = tested on: CAKI-1 renal
[7] = tested on: CCRF-CEM leukemia
[8] = tested on: COLO 205 colon
[9] = tested on: DU-145 prostate
[10] = tested on: HCC-2998 colon
[11] = tested on: HCT-116 colon
[12] = tested on: HCT-15 colon
[13] = tested on: HL-60(TB) leukemia
[14] = tested on: HOP-62 NSCLC
[15] = tested on: HOP-92 NSCLC
[16] = tested on: HT29 colon
[17] = tested on: IGROV1 ovarian
[18] = tested on: K-562 leukemia
[19] = tested on: KM12 colon
[20] = tested on: LOX IMVI melanoma
[21] = tested on: M14 melanoma
[22] = tested on: MALME-3M melanoma
[23] = tested on: MCF7 breast
[24] = tested on: MDA-MB-231 breast
[25] = tested on: MDA-MB-435 melanoma
[26] = tested on: MDA-MB-468 breast
[27] = tested on: MOLT-4 leukemia
[28] = tested on: NCI-H226 lung
[29] = tested on: NCI-H23 lung
[30] = tested on: NCI-H322M lung
[31] = tested on: NCI-H460 NSCLC
[32] = tested on: NCI-H522 lung
[33] = tested on: NCI/ADR-RES ovarian
[34] = tested on: OVCAR-3 ovarian
[35] = tested on: OVCAR-4 ovarian
[36] = tested on: OVCAR-5 ovarian
[37] = tested on: OVCAR-8 ovarian
[38] = tested on: PC-3 prostate
[39] = tested on: RPMI-8226 leukemia
[40] = tested on: RXF 393 renal
[41] = tested on: SF-268 CNS
[42] = tested on: SF-295 CNS
[43] = tested on: SF-539 CNS
[44] = tested on: SK-MEL-2 melanoma
[45] = tested on: SK-MEL-28 melanoma
[46] = tested on: SK-MEL-5 melanoma
[47] = tested on: SK-OV-3 ovarian
[48] = tested on: SN12C renal
[49] = tested on: SNB-19 CNS
[50] = tested on: SR leukemia
[51] = tested on: SW-620 colon
[52] = tested on: T-47D breast
[53] = tested on: TK-10 renal
[54] = tested on: U251 glioblastoma
[55] = tested on: UACC-257 melanoma
[56] = tested on: UACC-62 melanoma
[57] = tested on: UO-31 renal

`Cc1cc(C(=O)NC(C)(C)C)cc(C#Cc2ccc3c4c(oc3c2)C(C)(C)c2cc(NS(C)(=O)=O)ccc2C4=O)n1` showed a GI50 [1] of 642 nM, a TGI [1] of 2200 nM and a GI50 [2] of 833 nM. For the same molecule, the TGI [2] was 4660 nM, the GI50 [3] was 2270 nM and the TGI [3] was greater than 100000 nM. It also gave a GI50 [4] of 815 nM, a TGI [4] of 8300 nM and a GI50 [5] of 1150 nM. It also gave a TGI [5] of 4820 nM, a GI50 [6] of 549 nM and a TGI [6] of 4110 nM. It also gave a GI50 [7] of 1260 nM, a TGI [7] of 2830 nM and a GI50 [8] of 1280 nM. The TGI [8] was 3420 nM, the GI50 [9] was 1480 nM and the TGI [9] was 8910 nM. For the same molecule, the GI50 [10] was 1730 nM, the TGI [10] was 8550 nM and the GI50 [11] was 1020 nM. It also gave a TGI [11] greater than 100000 nM, a GI50 [12] of 862 nM and a TGI [12] greater than 100000 nM. It also gave a GI50 [13] of 591 nM, a TGI [13] of 1780 nM and a GI50 [14] of 2130 nM. For the same molecule, the TGI [14] was 6760 nM, the GI50 [15] was 198 nM and the TGI [15] was 980 nM. For the same molecule, the GI50 [16] was 774 nM, the TGI [16] was 3060 nM and the GI50 [17] was 2150 nM. It also gave a TGI [17] greater than 100000 nM, a GI50 [18] of 1310 nM and a TGI [18] greater than 100000 nM. It also gave a TGI [19] of 1020 nM, a GI50 [20] of 3200 nM and a TGI [20] of 7420 nM. It also gave a GI50 [21] of 1080 nM, a TGI [21] of 3340 nM and a GI50 [22] of 695 nM. It also gave a TGI [22] of 3010 nM, a GI50 [23] of 985 nM and a TGI [23] of 4350 nM. The GI50 [24] was 3450 nM, the TGI [24] was greater than 100000 nM and the GI50 [25] was 410 nM. The TGI [25] was 2030 nM, the GI50 [26] was 985 nM and the TGI [26] was 2850 nM. It also gave a GI50 [27] of 565 nM, a TGI [27] of 1700 nM and a GI50 [28] of 1310 nM. The TGI [28] was 5410 nM, the GI50 [29] was 602 nM and the TGI [29] was 2630 nM. The GI50 [30] was 2670 nM, the TGI [30] was greater than 100000 nM and the GI50 [31] was 1180 nM. For the same molecule, the TGI [31] was 3020 nM, the GI50 [32] was 813 nM and the TGI [32] was 4130 nM. It also gave a GI50 [33] of 1590 nM, a TGI [33] of 4170 nM and a GI50 [34] of 1460 nM. It also gave a TGI [34] of 4420 nM, a GI50 [35] of 1340 nM and a TGI [35] of 6330 nM. The GI50 [36] was 2080 nM, the TGI [36] was 9850 nM and the GI50 [37] was 1810 nM. For the same molecule, the TGI [37] was 6230 nM, the GI50 [38] was 2470 nM and the TGI [38] was 9210 nM. For the same molecule, the GI50 [39] was 168 nM, the TGI [39] was 410 nM and the GI50 [40] was 188 nM. For the same molecule, the TGI [40] was 410 nM, the GI50 [41] was 2170 nM and the TGI [41] was greater than 100000 nM. The GI50 [42] was 1330 nM, the TGI [42] was 3880 nM and the GI50 [43] was 1160 nM. For the same molecule, the TGI [43] was 5930 nM, the GI50 [44] was 496 nM and the TGI [44] was 3100 nM. The GI50 [45] was 971 nM, the TGI [45] was 5510 nM and the GI50 [46] was 913 nM. It also gave a TGI [46] of 2160 nM, a GI50 [47] of 1930 nM and a TGI [47] of 7040 nM. The GI50 [48] was 934 nM, the TGI [48] was greater than 100000 nM and the GI50 [49] was 2920 nM. For the same molecule, the TGI [49] was greater than 100000 nM, the GI50 [50] was 198 nM and the TGI [50] was 420 nM. The GI50 [51] was 1260 nM, the TGI [51] was 3540 nM and the GI50 [52] was 631 nM. For the same molecule, the TGI [52] was 2270 nM, the GI50 [53] was 1800 nM and the TGI [53] was 29200 nM. The GI50 [54] was 1890 nM, the TGI [54] was greater than 100000 nM and the GI50 [55] was 977 nM. The TGI [55] was 3070 nM, the GI50 [56] was 673 nM and the TGI [56] was 3960 nM. It also gave a GI50 [57] of 365 nM and a TGI [57] of 1710 nM.
